As a reminder, the bioavailability is dose-corrected exposure relative to a reference, in per cent.

The values that follow come from patent US20190315711A1 (eXIthera Pharmaceuticals, Inc., priority 2016, published 2019).

This data set is described as follows: Determination of bioavailability in a dog. Format: in vivo. The settings on record: plasma, male beagle dogs, IV 1 mg/kg vs oral gavage 5 mg/kg. As for the experimental part: The following protocol was used to estimate the bioavailability of test compounds in a dog. Test compounds were formulated in vehicles compatible with intravenous and oral dosing. Test compounds were administered to male beagle dogs via an intravenous bolus at 1 mg/kg (1 mg/mL at a dose volume of 1 mL/kg) or via oral gavage at 5 mg/kg (1 mg/mL at a dose volume of 5 mL/kg). Blood samples were collected via the contralateral (to intravenous bolus) jugular vein or via other accessible vein, at various timepoints following administration out to 24 hours post dose. Plasma samples (EDTA) were obtained by centrifugation (2200×g for 10 minutes at 5° C.) and stored frozen ([…]) until analyzed for parent compound via LC/MS/MS. Pharmacokinetic parameters were estimated from the plasma concentration time data by standard non-compartmental methods utilizing standard analysis software. By comparing the area under the curve (AUC) for IV and PO administration estimates of oral bioavailability were determined.

The structures appear in SMILES notation.

`CN(C(=O)[C@@H]1[C@@H](Cc2ccnc(N)c2)C(=O)N1C(=O)N[C@@H](C1CCCCC1)C(F)(F)F)c1ncccn1` [Compound 21]: the bioavailability is not above 10%.

The compound `CC[C@@H](NC(=O)N1C(=O)[C@H](Cc2ccnc(N)c2)[C@H]1C(=O)N(C)c1ccncc1)C1CCCCC1` [Compound 25] returned a bioavailability of 11 to 30%. Under `CC[C@@H](NC(=O)N1C(=O)[C@H](Cc2ccnc(N)c2)[C@H]1C(=O)N(C)c1ccccc1)C1CCCCC1` [Compound 27] stands more than 30%; under `CN(C(=O)[C@@H]1[C@@H](Cc2ccnc(N)c2)C(=O)N1C(=O)N[C@@H](C1CCCCC1)C1CC1)c1ccccc1` [Compound 36], 11 to 30%. Take `CC[C@@H](NC(=O)N1C(=O)[C@H](Cc2ccnc(N)c2)[C@H]1C(=O)N(CC)c1ncccn1)C1CCCCC1` [Compound 39]: the bioavailability was not above 10%.

With `CC[C@@H](NC(=O)N1C(=O)[C@H](Cc2ccnc(N)c2)[C@H]1C(=O)N(C)c1ccncc1)c1ccccc1` [Compound 42], the bioavailability was more than 30%.

Turning to `CN(C(=O)[C@@H]1[C@@H](Cc2ccnc(N)c2)C(=O)N1C(=O)N[C@@H](C1CCCCC1)C1CC1)c1ccncc1` [Compound 52], the bioavailability is not above 10%.

The compound `CC[C@@H](NC(=O)N1C(=O)[C@H](Cc2ccnc(N)c2)[C@H]1C(=O)N(C)c1ccncc1)c1cccnc1` [Compound 59] gave a bioavailability of 11 to 30%. Consider `CC[C@@H](NC(=O)N1C(=O)[C@H](Cc2ccnc(N)c2)[C@H]1C(=O)N(C)c1ncccn1)c1cccnc1` [Compound 61], for which the bioavailability is not above 10%. The value for `CC[C@@H](NC(=O)N1C(=O)[C@H](Cc2ccnc(NC)c2)[C@H]1C(=O)N(C)c1ncccn1)C1CCCCC1` [Compound 80] was more than 30%; that for `CC[C@@H](NC(=O)N1C(=O)[C@H](Cc2ccnc(N)c2)[C@H]1C(=O)N(C)c1ncccn1)c1ccccc1` [Compound 84] was more than 30%.

As for `CC[C@@H](NC(=O)N1C(=O)[C@H](Cc2ccnc(N)c2)[C@H]1C(=O)N(C)c1ccncc1)c1cccc(C)c1` [Compound 87], the bioavailability was more than 30%. Under `CC[C@@H](NC(=O)N1C(=O)[C@H](Cc2ccnc(N)c2)[C@H]1C(=O)N(C)c1ccncc1)c1cccc(Cl)c1` [Compound 90] stands more than 30%; under `CC[C@@H](NC(=O)N1C(=O)[C@H](Cc2cc(C)nc(N)c2)[C@H]1C(=O)N(C)c1ccccc1)C1CCCCC1` [Compound 91], more than 30%.
